From patent US20260285716A1, “METHODS TO REDUCE CONTAMINATION, BIOFILM, AND FOULING FROM WATER SYSTEMS AND SURFACES” (Aequor Inc., priority 2022, published 2026)

System: Pseudomonas aeruginosa
Type: cell-based

butyl acid phosphate [BAP]
MBEC (removal of 48-hr biofilm): ≤47 ppm
